Measured values from ChEMBL document CHEMBL1153283, “Synthesis and application of MeOSuc-Ala-Ala-Pro-Phe-CH2Cl as potent proteinase K inhibitor” (Bioorg Med Chem Lett, 2009).
Calls of active or inactive are those of the source. The rule behind the calls is not given here.

Tests used:
[1] = Inhibition of proteinase K at 0.25 mM by independent digestion assay in presence of BSA
[2] = Inhibition of proteinase K at 0.05 mM by RT-PCR
[3] = Inhibition of proteinase K at 0.125 mM by independent digestion assay in presence of BSA
[4] = Inhibition of proteinase K at […] by RT-PCR
[5] = Inhibition of proteinase K at 1 mM by RT-PCR

| Structure (SMILES) | Activity [1] | Activity [2] | Activity [3] | Activity [4] | Activity [5] |
| --- | --- | --- | --- | --- | --- |
| COC(=O)CCC(=O)N[C@H](C)C(=O)N[C@@H](C)C(=O)N1CCC[C@H]1C(=O)N[C@@H](Cc1ccccc1)C(=O)CCl | Active | Active | – | – | – |
| COC(=O)CCC(=O)N[C@H](C)C(=O)N[C@@H](C)C(=O)N1CCC[C@H]1C(=O)N[C@H](C(=O)CCl)C(C)C | – | – | Active | Active | Active |
